# Data: patent publication US12012615B2, “Method of making induced pluripotent stem cells using p53 inhibitors” (Kyoto University, priority 2008, dated 2024)
# Key:
# p53 [1] = experiment: Luciferase reporter driven by a p53-responsive element in HDF; assay type: cell-based, human; conditions: luciferase activity two days after introduction
# From the text: (§1) FIGS. 24A-24C show effects of p53 suppression on p21 and Myc. Genes regulated (4 increased and 7 decreased) by p53 suppression were introduced into HDFs together with the four reprogramming factors (FIG. 24A) or the four reprogramming factors and the p53 shRNA (FIG. 24B). On day 24 (FIG. 24A) or day 28 (FIG. 24B) post-transduction, numbers of iPS cell colonies were counted. **; p<0.01 compared to DsRed control (n=3). Luciferase reporters containing responsive elements of p53 or Myc, or that driven by the polymerase II promoter were introduced into HDFs, together with the mock retroviral vector, the p53 shRNA, the four reprogramming factors, or the three factors devoid of Myc. Two days later, luciferase activities were determined (c). **; p<0.01, *; p<0.05 compared to the mock control (n=3).
# (§2) The p21 protein binds to Myc and suppresses its transcriptional activity (Kitaura, H. et al., J Biol. Chem., 275(14), 10477-10483 (2000)). This might contribute to the increased efficiency of iPS cell generation by p53-p21 suppression. We evaluated the Myc activity in HDF by introducing luciferase reporters driven by either a p53-responsive element or a Myc responsive element (FIG. 24C). We confirmed the p53 activity was reduced by the shRNA. […] The effect was stronger than that observed with the introduction of the four factors including c-Myc.
# HDFs = experiment: Human iPS cell generation with p53 shRNA co-transduction; assay type: cell-based; conditions: co-introduced with the four reprogramming factors
# From the text: The retroviral vector expressing either p53 shRNA or control RNA was transduced into HDFs together with the four reprogramming factors. To rescue RNAi-mediated knockdown, a retroviral vector for mouse p53 was co-introduced.
# Myc = experiment: Luciferase reporter driven by a Myc responsive element in HDF; assay type: cell-based, human; conditions: luciferase activity two days after introduction
# From the text: as §1, §2
# p53 [2] = experiment: p53 protein level by western blot after shRNA transduction; assay type: cell-based, human; conditions: western blot six days after retroviral transduction
# Method: Retroviral vectors for p53 shRNA or control RNA were transduced into HDFs. Six days after the transduction, p53 protein levels were determined by western blot analyses.
# (B) In another experiment, we examined effects of shRNA against human p53 (shRNA2; Stewart S. A. et al. RNA 9(4), 493 (2003)). Retroviral vectors for shRNA expression, pMKO.1-puro (Addgene #8452), pMKO.1-puro p53 shRNA1 (Addgene #10671) and pMKO.1-puro p53 shRNA2 (Addgene #10672; shRNA sequence is shown in SEQ ID NO:28), were obtained from Addgene. Retroviruses for shRNAs, and the four or three reprogramming factors were produced in PLAT-E cells. For iPS cell generation, equal amounts of PLAT-E supematants containing each retrovirus were mixed and transduced to HDF.
# HDF = experiment: DNA microarray gene expression, control HDF against p53 knockdown HDF; assay type: cell-based, human
# From the text: To elucidate p53 target genes that are responsible for the observed enhancement of iPS cell generation, we compared gene expression between p53 wild-type MEF and p53-null MEF by DNA microarrays, and between control HDF and p53 knockdown HDF. In MEF, 1590 genes increased and 1485 genes decreased >5 fold in p53-null MEF. In HDF, 290 genes increased and 430 genes decreased >5 fold by p53 shRNA. Between mouse and human, eight increased genes are common, including v-myb myeloblastosis viral oncogene homolog (MYB) and a RAS oncogenes family, RAB39B (Table 2).
substance,measurement,setting,value
"p53 shRNA2: shRNA against human p53, SEQ ID NO:28, retroviral vector pMKO.1-puro p53 shRNA2 (Addgene #10672) (GACTCCAGTGGTAATCTACTGCTCGAGCAGTAGATTACCACTGGAGTC)",p53 activity (luciferase reporter),p53 [1],reduced
same,numbers of human iPS cell colonies,HDFs,markedly increased
same,Myc activity (luciferase reporter),Myc,significantly enhanced
same,p53 protein level,p53 [2],effectively suppressed
same,number of genes decreased >5 fold,HDF,430 genes
same,number of genes increased >5 fold,HDF,290 genes
